Source: patent US20230278972A1, “SUBSTITUTED HALOALKYL SULFONANILIDE HERBICIDES” (FMC Corporation, priority 2020, published 2023)

What was measured:
Assay type in all cases: in vivo
[1] = system: galium (catchweed bedstraw, Galium aparine); experiment: Test A postemergence, galium; conditions: Postemergence, 0 to 100 scale (0 no effect, 100 complete control)
In short: (§1)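 After sowing into a sand-amended loam, pots for the preemergence test were treated by spraying directly onto soil. In parallel, seedlings at the one- to two-leaf stage and 2 to 10 cm tall were treated postemergence with the identical surfactant-containing formulation.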

kochia (Bassia scoparia) [2] = experiment: Test A preemergence, kochia; conditions: Preemergence; for Plant response rating, Kochia: 125 g ai/ha, visual injury, 0 to 100 scale (0 no effect, 100 complete control), approx. 10 days; for Kochia plant response rating: 500 g ai/ha, visual injury on 0 to 100 scale (0 no effect, 100 complete control), approximately 10 days
In short: (§2)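 Postemergence ratings come from foliar sprays onto one- to two-leaf plants of 2 to 10 cm grown in loam/sand; preemergence ratings come from a directed spray onto the soil of newly seeded pots. Formulation was a surfactant-containing non-phytotoxic solvent blend.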

[3] = system: wheat (Triticum aestivum); experiment: Test A postemergence, wheat; conditions: Postemergence, 0 to 100 scale (0 no effect, 100 complete control)
In short: as §1

[4] = system: pigweed (Amaranthus retroflexus); experiment: Test A postemergence, pigweed; conditions: Postemergence, 0 to 100 scale (0 no effect, 100 complete control)
In short: as §2

[5] = system: blackgrass (Alopecurus myosuroides); experiment: Test A postemergence, blackgrass; conditions: Postemergence, 0 to 100 scale (0 no effect, 100 complete control)
In short: as §2

[6] = system: pigweed (Amaranthus retroflexus); experiment: Test A preemergence, pigweed; conditions: for Plant response rating, Pigweed: 125 g ai/ha, visual injury, 0 to 100 scale (0 no effect, 100 complete control), approx. 10 days; for Pigweed plant response rating: 500 g ai/ha, visual injury on 0 to 100 scale (0 no effect, 100 complete control), approximately 10 days
In short: as §1

[7] = system: barnyardgrass (Echinochloa crus-galli); experiment: Test A preemergence, barnyardgrass; conditions: Preemergence; for Plant response rating, Barnyardgrass: 125 g ai/ha, visual injury, 0 to 100 scale (0 no effect, 100 complete control), approx. 10 days; for Barnyardgrass plant response rating: 500 g ai/ha, visual injury on 0 to 100 scale (0 no effect, 100 complete control), approximately 10 days
In short: as §2

[8] = system: Ryegrass, Italian (Italian ryegrass, Lolium multiflorum); experiment: Test A postemergence, Ryegrass, Italian; conditions: Postemergence, 0 to 100 scale (0 no effect, 100 complete control)
In short: as §2

[9] = system: ragweed (common ragweed, Ambrosia artemisiifolia); experiment: Test A postemergence, ragweed; conditions: Postemergence, 0 to 100 scale (0 no effect, 100 complete control)
In short: as §2

[10] = system: Foxtail, Giant (giant foxtail, Setaria faberi); experiment: Test A preemergence, Foxtail, Giant; conditions: Preemergence; for Plant response rating, Foxtail, Giant: 125 g ai/ha, visual injury, 0 to 100 scale (0 no effect, 100 complete control), approx. 10 days; for Foxtail, Giant plant response rating: 500 g ai/ha, visual injury on 0 to 100 scale (0 no effect, 100 complete control), approximately 10 days
In short: as §2

corn (Zea mays) = experiment: Test A postemergence, corn; conditions: Postemergence, 0 to 100 scale (0 no effect, 100 complete control)
In short: as §2

kochia (Bassia scoparia) [11] = experiment: Test A postemergence, kochia; conditions: Postemergence, 0 to 100 scale (0 no effect, 100 complete control)
In short: as §2

[12] = system: Ryegrass, Italian (Italian ryegrass, Lolium multiflorum); experiment: Test A preemergence, Ryegrass, Italian; conditions: Preemergence; for Plant response rating, Ryegrass, Italian: 125 g ai/ha, visual injury, 0 to 100 scale (0 no effect, 100 complete control), approx. 10 days; for Ryegrass, Italian plant response rating: 500 g ai/ha, visual injury on 0 to 100 scale (0 no effect, 100 complete control), approximately 10 days
In short: as §2

[13] = system: barnyardgrass (Echinochloa crus-galli); experiment: Test A postemergence, barnyardgrass; conditions: Postemergence, 0 to 100 scale (0 no effect, 100 complete control)
In short: as §1

[14] = system: Foxtail, Giant (giant foxtail, Setaria faberi); experiment: Test A postemergence, Foxtail, Giant; conditions: Postemergence, 0 to 100 scale (0 no effect, 100 complete control)
In short: as §2

[15] = system: ragweed (common ragweed, Ambrosia artemisiifolia); experiment: Test A preemergence, ragweed; conditions: Preemergence; for Plant response rating, Ragweed: 125 g ai/ha, visual injury, 0 to 100 scale (0 no effect, 100 complete control), approx. 10 days; for Ragweed plant response rating: 500 g ai/ha, visual injury on 0 to 100 scale (0 no effect, 100 complete control), approximately 10 days
In short: as §2

[16] = 500 g ai/ha, visual injury approx. 10 days

Cc1cc(Cl)c(C(=O)N2CCOCC2)cc1NS(=O)(=O)C(F)(F)F [Compound 248]
Plant response rating, Galium ([1]; 125 g ai/ha): 70
Plant response rating, Galium [1, 16]: 90
Plant response rating, Kochia (kochia (Bassia scoparia) [2]): 90
Kochia plant response rating (kochia (Bassia scoparia) [2]): 90
Plant response rating, Wheat ([3]; 125 g ai/ha): 40
Plant response rating, Wheat [3, 16]: 60
Plant response rating, Pigweed ([4]; 125 g ai/ha): 80
Plant response rating, Pigweed [4, 16]: 80
Plant response rating, Blackgrass ([5]; 125 g ai/ha): 0
Plant response rating, Blackgrass [5, 16]: 60
Plant response rating, Pigweed [6]: 90
Pigweed plant response rating [6]: 90
Plant response rating, Barnyardgrass [7]: 80
Barnyardgrass plant response rating [7]: 90
Plant response rating, Ryegrass, Italian ([8]; 125 g ai/ha): 0
Plant response rating, Ryegrass, Italian [8, 16]: 70
Plant response rating, Ragweed ([9]; 125 g ai/ha): 90
Plant response rating, Ragweed [9, 16]: 90
Plant response rating, Foxtail, Giant [10]: 40
Foxtail, Giant plant response rating [10]: 80
Plant response rating, Corn (corn (Zea mays); 125 g ai/ha): 0
Plant response rating, Corn (corn (Zea mays); [16]): 0
Plant response rating, Kochia (kochia (Bassia scoparia) [11]; 125 g ai/ha): 60
Plant response rating, Kochia (kochia (Bassia scoparia) [11]; [16]): 90
Plant response rating, Ryegrass, Italian [12]: 70
Ryegrass, Italian plant response rating [12]: 90
Plant response rating, Barnyardgrass ([13]; 125 g ai/ha): 60
Plant response rating, Barnyardgrass [13, 16]: 90
Plant response rating, Foxtail, Giant ([14]; 125 g ai/ha): 20
Plant response rating, Foxtail, Giant [14, 16]: 50
Plant response rating, Ragweed [15]: 80
Ragweed plant response rating [15]: 90

Cc1cc(Cl)c(C(=O)N2CCOCC2)cc1N(S(=O)(=O)C(F)(F)F)S(=O)(=O)C(F)(F)F [Compound 250]
Plant response rating, Galium ([1]; 125 g ai/ha): 50
Plant response rating, Galium [1, 16]: 80
Plant response rating, Kochia (kochia (Bassia scoparia) [2]): 80
Kochia plant response rating (kochia (Bassia scoparia) [2]): 100
Plant response rating, Wheat ([3]; 125 g ai/ha): 20
Plant response rating, Wheat [3, 16]: 30
Plant response rating, Pigweed ([4]; 125 g ai/ha): 80
Plant response rating, Pigweed [4, 16]: 90
Plant response rating, Blackgrass ([5]; 125 g ai/ha): 0
Plant response rating, Blackgrass [5, 16]: 50
Plant response rating, Pigweed [6]: 100
Pigweed plant response rating [6]: 100
Plant response rating, Barnyardgrass [7]: 40
Barnyardgrass plant response rating [7]: 90
Plant response rating, Ryegrass, Italian ([8]; 125 g ai/ha): 0
Plant response rating, Ryegrass, Italian [8, 16]: 20
Plant response rating, Ragweed ([9]; 125 g ai/ha): 80
Plant response rating, Ragweed [9, 16]: 90
Plant response rating, Foxtail, Giant [10]: 90
Foxtail, Giant plant response rating [10]: 100
Plant response rating, Corn (corn (Zea mays); 125 g ai/ha): 0
Plant response rating, Corn (corn (Zea mays); [16]): 30
Plant response rating, Kochia (kochia (Bassia scoparia) [11]; 125 g ai/ha): 70
Plant response rating, Kochia (kochia (Bassia scoparia) [11]; [16]): 90
Plant response rating, Ryegrass, Italian [12]: 60
Ryegrass, Italian plant response rating [12]: 90
Plant response rating, Barnyardgrass ([13]; 125 g ai/ha): 20
Plant response rating, Barnyardgrass [13, 16]: 40
Plant response rating, Foxtail, Giant ([14]; 125 g ai/ha): 0
Plant response rating, Foxtail, Giant [14, 16]: 10
Plant response rating, Ragweed [15]: 80
Ragweed plant response rating [15]: 90

Cc1cc(Cl)c(C(=O)N(C)C)cc1NS(=O)(=O)C(F)(F)F [Compound 251]
Plant response rating, Galium ([1]; 125 g ai/ha): 80
Plant response rating, Galium [1, 16]: 80
Plant response rating, Kochia (kochia (Bassia scoparia) [2]): 90
Kochia plant response rating (kochia (Bassia scoparia) [2]): 90
Plant response rating, Wheat ([3]; 125 g ai/ha): 40
Plant response rating, Wheat [3, 16]: 70
Plant response rating, Pigweed ([4]; 125 g ai/ha): 80
Plant response rating, Pigweed [4, 16]: 80
Plant response rating, Blackgrass ([5]; 125 g ai/ha): 20
Plant response rating, Blackgrass [5, 16]: 60
Plant response rating, Pigweed [6]: 100
Pigweed plant response rating [6]: 100
Plant response rating, Barnyardgrass [7]: 20
Barnyardgrass plant response rating [7]: 90
Plant response rating, Ryegrass, Italian ([8]; 125 g ai/ha): 30
Plant response rating, Ryegrass, Italian [8, 16]: 80
Plant response rating, Ragweed ([9]; 125 g ai/ha): 70
Plant response rating, Ragweed [9, 16]: 80
Plant response rating, Foxtail, Giant [10]: 50
Foxtail, Giant plant response rating [10]: 90
Plant response rating, Corn (corn (Zea mays); 125 g ai/ha): 0
Plant response rating, Corn (corn (Zea mays); [16]): 30
Plant response rating, Kochia (kochia (Bassia scoparia) [11]; 125 g ai/ha): 40
Plant response rating, Kochia (kochia (Bassia scoparia) [11]; [16]): 60
Plant response rating, Ryegrass, Italian [12]: 90
Ryegrass, Italian plant response rating [12]: 100
Plant response rating, Barnyardgrass ([13]; 125 g ai/ha): 70
Plant response rating, Barnyardgrass [13, 16]: 70
Plant response rating, Foxtail, Giant ([14]; 125 g ai/ha): 10
Plant response rating, Foxtail, Giant [14, 16]: 80
Plant response rating, Ragweed [15]: 80
Ragweed plant response rating [15]: 80

Cc1cc(Cl)c(C(=O)N2CCCCC2)cc1NS(=O)(=O)C(F)(F)F [Compound 252]
Plant response rating, Galium ([1]; 125 g ai/ha): 80
Plant response rating, Galium [1, 16]: 80
Plant response rating, Kochia (kochia (Bassia scoparia) [2]): 60
Kochia plant response rating (kochia (Bassia scoparia) [2]): 80
Plant response rating, Wheat ([3]; 125 g ai/ha): 0
Plant response rating, Wheat [3, 16]: 40
Plant response rating, Pigweed ([4]; 125 g ai/ha): 70
Plant response rating, Pigweed [4, 16]: 80
Plant response rating, Blackgrass ([5]; 125 g ai/ha): 0
Plant response rating, Blackgrass [5, 16]: 0
Plant response rating, Pigweed [6]: 100
Pigweed plant response rating [6]: 100
Plant response rating, Barnyardgrass [7]: 40
Barnyardgrass plant response rating [7]: 100
Plant response rating, Ryegrass, Italian ([8]; 125 g ai/ha): 30
Plant response rating, Ryegrass, Italian [8, 16]: 70
Plant response rating, Ragweed ([9]; 125 g ai/ha): 10
Plant response rating, Ragweed [9, 16]: 90
Plant response rating, Foxtail, Giant [10]: 100
Foxtail, Giant plant response rating [10]: 100
Plant response rating, Corn (corn (Zea mays); 125 g ai/ha): 10
Plant response rating, Corn (corn (Zea mays); [16]): 0
Plant response rating, Kochia (kochia (Bassia scoparia) [11]; 125 g ai/ha): 30
Plant response rating, Kochia (kochia (Bassia scoparia) [11]; [16]): 60
Plant response rating, Ryegrass, Italian [12]: 60
Ryegrass, Italian plant response rating [12]: 100
Plant response rating, Barnyardgrass ([13]; 125 g ai/ha): 0
Plant response rating, Barnyardgrass [13, 16]: 30
Plant response rating, Foxtail, Giant ([14]; 125 g ai/ha): 0
Plant response rating, Foxtail, Giant [14, 16]: 40
Plant response rating, Ragweed [15]: 80
Ragweed plant response rating [15]: 90
